Test results reported in PubChem BioAssay (NCI).
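Results reflect a 48-hour exposure of cells in 96-well plates to compound at five concentrations. GI50 is the concentration that inhibits growth by half. Definition used: TGI = concentration required for complete inhibition of growth.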

Columns and labels:
Assay in all cases: DTP human tumour cell line panel, 48 h
[1] = system: NCI-H23 lung
[2] = system: HCT-116 colon
[3] = system: UACC-62 melanoma
[4] = system: T-47D breast
[5] = system: NCI-H522 lung
[6] = system: SW-620 colon
[7] = system: BT-549 breast
[8] = system: KM12 colon
[9] = system: SK-MEL-28 melanoma
[10] = system: HCC-2998 colon
[11] = system: HOP-62 NSCLC
[12] = system: HT29 colon
[13] = system: ACHN renal
[14] = system: NCI/ADR-RES ovarian
[15] = system: SK-MEL-2 melanoma
[16] = system: COLO 205 colon
[17] = system: MALME-3M melanoma
[18] = system: OVCAR-4 ovarian
[19] = system: IGROV1 ovarian
[20] = system: RPMI-8226 leukemia
[21] = system: HCT-15 colon
[22] = system: PC-3 prostate
[23] = system: DU-145 prostate
[24] = system: RXF 393 renal
[25] = system: NCI-H460 lung
[26] = system: K-562 leukemia
[27] = system: SK-OV-3 ovarian
[28] = system: SN12C renal
[29] = system: TK-10 renal
[30] = system: SK-MEL-5 melanoma
[31] = system: SNB-19 CNS
[32] = system: SF-539 CNS
[33] = system: UACC-257 melanoma
[34] = system: SNB-75 CNS
[35] = system: LOX IMVI melanoma
[36] = system: U251 CNS
[37] = system: SF-268 CNS
[38] = system: A498 renal
[39] = system: UO-31 renal
[40] = system: A549 NSCLC
[41] = system: SF-295 CNS
[42] = system: MOLT-4 leukemia
[43] = system: EKVX NSCLC
[44] = system: CAKI-1 renal
[45] = system: MDA-MB-435
[46] = system: OVCAR-5 ovarian
[47] = system: OVCAR-8 ovarian
[48] = system: HL-60(TB) leukemia
[49] = system: MDA-MB-231 breast
[50] = system: M14 melanoma
[51] = system: 786-0 renal
[52] = system: HOP-92 NSCLC
[53] = system: CCRF-CEM leukemia
[54] = system: SR leukemia

Structure (SMILES): CCc1cc(OC(=O)N2CCC(N3CCCCC3)CC2)ccc1Nc1cc(-c2ccc(-n3cccn3)cc2)[nH]n1
- GI50 [1]: 1.82 µM
- TGI [1]: 3.9 µM
- GI50 [2]: 1.45 µM
- TGI [2]: 2.83 µM
- GI50 [3]: 1.92 µM
- TGI [3]: 3.96 µM
- GI50 [4]: 1.61 µM
- TGI [4]: 3.51 µM
- GI50 [5]: 1.85 µM
- TGI [5]: 3.51 µM
- GI50 [6]: 1.86 µM
- TGI [6]: 3.51 µM
- GI50 [7]: 1.58 µM
- TGI [7]: 2.95 µM
- GI50 [8]: 2.11 µM
- TGI [8]: 4.29 µM
- GI50 [9]: 1.73 µM
- TGI [9]: 3.27 µM
- GI50 [10]: 1.75 µM
- TGI [10]: 3.33 µM
- GI50 [11]: 1.84 µM
- TGI [11]: 3.7 µM
- GI50 [12]: 1.27 µM
- TGI [12]: 2.74 µM
- GI50 [13]: 1.72 µM
- TGI [13]: 3.1 µM
- GI50 [14]: 2.94 µM
- TGI [14]: 9.89 µM
- GI50 [15]: 1.83 µM
- TGI [15]: 3.33 µM
- GI50 [16]: 1.79 µM
- TGI [16]: 3.27 µM
- GI50 [17]: 1.67 µM
- TGI [17]: 3.21 µM
- GI50 [18]: 2.22 µM
- TGI [18]: 5.34 µM
- GI50 [19]: 1.93 µM
- TGI [19]: 4.04 µM
- GI50 [20]: 2.03 µM
- TGI [20]: 5.62 µM
- GI50 [21]: 1.36 µM
- TGI [21]: 2.83 µM
- GI50 [22]: 1.73 µM
- TGI [22]: 3.65 µM
- GI50 [23]: 1.91 µM
- TGI [23]: 4.17 µM
- GI50 [24]: 1.45 µM
- TGI [24]: 2.89 µM
- GI50 [25]: 1.58 µM
- TGI [25]: 3.16 µM
- GI50 [26]: 1.13 µM
- TGI [26]: 5.07 µM
- GI50 [27]: 1.93 µM
- TGI [27]: 3.47 µM
- GI50 [28]: 1.84 µM
- TGI [28]: 3.71 µM
- GI50 [29]: 1.41 µM
- TGI [29]: 3.45 µM
- GI50 [30]: 1.72 µM
- TGI [30]: 3.12 µM
- GI50 [31]: 1.95 µM
- TGI [31]: 4.11 µM
- GI50 [32]: 1.73 µM
- TGI [32]: 3.27 µM
- GI50 [33]: 1.82 µM
- TGI [33]: 3.44 µM
- GI50 [34]: 1.66 µM
- TGI [34]: 4.22 µM
- GI50 [35]: 1.66 µM
- TGI [35]: 3.17 µM
- GI50 [36]: 1.58 µM
- TGI [36]: 2.99 µM
- GI50 [37]: 1.82 µM
- TGI [37]: 3.73 µM
- GI50 [38]: 1.4 µM
- TGI [38]: 2.81 µM
- GI50 [39]: 1.56 µM
- TGI [39]: 3.6 µM
- GI50 [40]: 1.21 µM
- TGI [40]: 2.66 µM
- GI50 [41]: 1.66 µM
- TGI [41]: 3.2 µM
- GI50 [42]: 2.16 µM
- TGI [42]: 11 µM
- GI50 [43]: 2.16 µM
- TGI [43]: 5.86 µM
- GI50 [44]: 1.55 µM
- TGI [44]: 3.45 µM
- GI50 [45]: 1.77 µM
- TGI [45]: 3.34 µM
- GI50 [46]: 1.83 µM
- TGI [46]: 4.02 µM
- GI50 [47]: 1.8 µM
- TGI [47]: 3.83 µM
- GI50 [48]: 1.71 µM
- TGI [48]: 4.52 µM
- GI50 [49]: 1.9 µM
- TGI [49]: 3.57 µM
- GI50 [50]: 1.83 µM
- TGI [50]: 3.3 µM
- GI50 [51]: 1.55 µM
- TGI [51]: 2.98 µM
- GI50 [52]: 1.45 µM
- TGI [52]: 3.23 µM
- GI50 [53]: 2.95 µM
- TGI [53]: 21.6 µM
- GI50 [54]: 1.49 µM
- TGI [54]: 4.6 µM
